# Assay results taken from patent US20110021458A1, “PHARMACEUTICAL COMPOSITIONS CONTAINING AN INCLUSION COMPLEX FORMED BY DISULFIRAM AND A CYCLODEXTRINE, WHICH CAN BE USED IN THE TREATMENT OF ALCOHOL AND COCAINE DEPENDENCE” (priority 2007, published 2011).
# Tests used:
# [1] = Pharmacokinetics in rats after SC administration (plasma total DDC); conditions: rat, in vivo, 15 mg/kg
# Protocol: FIG. 19: Effect of subcutaneous administration in rats, 15 mg/kg of DSF to the form of binary mixtures in water 25:75 (A); in miglyol (B) and (C) DSF free water on the concentrations Plasma total DDC in time.
# In addition to the histopathological studies in rats pharmacokinetic studies were conducted that measured the plasma concentrations of metabolites of DSF (DDC and MeDDC) after administration SC (FIG. 19) and/or IM (FIG. 20), 15 mg/kg weight of DSF to the form of binary mixtures.
# It was quantified the plasma concentration of total DDC that corresponds to the sum of the metabolites and MeDDC DDC, and it was used as a parameter for the analysis of the results shown below.
# [2] = test system: rat skin in the areas of subcutaneous administration; experiment: Histopathological study of the subcutaneous administration area; type: in vivo; conditions: for histological findings in rat skin: SC 15 mg/kg of DSF
# Protocol: FIGS. 3 to 10: histological cuts of rat skin in the areas of subcutaneous administration (SC), 15 mg/kg of DSF to the form of DSF physiological serum (PS) (A); Complex DSF-CD in SF (B), 25:75 Binary Mixture in SF (C) and control with SF (D). The histological were obtained at different times post-administration of each test. FIG. 3 is up to 8 hours post-administration; FIG. 4, to 24 hours post-administration; FIG. 5, at 48 hours post-administration; FIG. 6 to 72 hours post-administration; FIG. 7, 96 hours post-administration; FIG. 8, to 120 hours post-administration; FIG. 9, to 144 hours post administration and FIG. 10 corresponds to 168 hours post-administration.
# The histopathological evaluation was performed for subcutaneous (SC) and intramuscular (IM) injections of DSF free, in the form of CD-DSF Complex and in the form of binary mixture in ratios of 25:75 and 40:60. water, water with 15% glycerin, miglyol and ethyl oleate were used as excipients.
# 15 mg/kg of free DSF, DSF Complex-CD, Mixed Binary 25:75 and physiological saline (SF) were administered subcutaneously (SC).
# Comparative histological study between physiological saline and DSF in its various forms of administration are seen in FIG. 3 to No. 10.
compound,measurement,setting,value
"CCN(CC)C(=S)SSC(=S)N(CC)CC [free DSF, 1-(diethylthiocarbamoyldisulfanyl)-N,N-diethyl-methanethioamide]",plasma levels of active metabolites at 168 hours post-administration,[1],not detected
same,histological findings in rat skin,[2]; 8 hours post-administration,severe hyperemia was observed in the deep vascular plexus with bleeding in hypodermis
same,histological findings in rat skin,[2]; 24 hours post-administration,"severe hyperemia was observed in both plexus, abundant presence of inflammatory cells and hemorrhage in hypodermis"
same,histological findings in rat skin,[2]; 48 hours post-administration,"severe desestructuration of the collagen fibers, hyperemia of deep vascular plexus and moderate bleeding in hypodermis"
same,histological findings in rat skin,[2]; 72 hours post-administration,"moderate hyperemia was observed in both plexus, with moderate presence of inflammatory cells and hemorrhage in hypodermis"
same,histological findings in rat skin,[2]; 96 hours post-administration,"moderate hyperemia of deep vascular plexus, with hemorrhage in hypodermis and severe presence of inflammatory cells"
same,histological findings in rat skin,[2]; 120 hours post-administration,"moderate hyperemia of deep vascular plexus, with slight presence of inflammatory cells and desestructuration of collagen fibers"
same,histological findings in rat skin,[2]; 144 hours post-administration,moderate hyperemia of deep vascular plexus and low presence of inflammatory cells
same,histological findings in rat skin,[2]; 168 hours post-administration,moderate hyperemia of deep vascular plexus
same,"Histopathological lesions, conclusion",[2]; SC administration,severe Histopathological lesions
same,desestructuration of the collagen fibers (summary),"[2]; SC, rat skin, 8, 24 and 48 hours from inoculation","mild, moderate to severe"
same,Hyperemia of deep vascular plexus (summary),"[2]; SC, rat skin, 8-168 hours",severe in biopsies of 8 and 24 hours and mild to moderate in subsequent checks
same,"presence of inflammatory cells, superficial vascular plexus hyperemia and hemorrhage in subcutis (summary)","[2]; SC, rat skin, over the controls of the study",moderate to severe
